Patent publication US8357365B2, “Granulysin peptides and methods of use thereof” (The Regents of the University of California, priority 2005, dated 2013)
“Also recorded” adds a separate entry of the source.

How the values were obtained:
[1] = test system: Propionibacterium acnes strain ATCC 6919; experiment: CFU assay of antimicrobial activity against P. acnes; type: cell-based; conditions: for reduction of the number of viable P. acnes: 100 μM of peptide (FIG. 1B)
Procedure: CFU assay. The CFU assay was performed as described previously (Ernst et al., (2000) Immunol 165:7102-7108). Propionibacterium acnes strain ATCC 6919 (American Type Cell Culture, Manassas, Va.) was grown under anaerobic conditions in Reinforced Clostridial Medium (Oxoid, Basingstroke, England) for two days and collected in mid-log phase. The bacteria were washed three times with the assay buffer, 10 mM sodium phosphate, pH 7.2, supplemented with 0.03% trypticase soy broth (TSB, Becton-Dickinson, Cockeysville, Md.), and enumerated by applying a conversion factor of 7.5×10^7 bacteria/mL=1 OD unit at 600 nm. Various concentrations of granulysin or granulysin peptides were incubated with 3.75×10^5 bacteria in a final volume of 30 μL at 37° C. for four hours. […] Plates were incubated for four days at 37° C. under anaerobic conditions, then individual colonies were counted and the number of CFU per tube was calculated.

Escherichia coli = conditions: earlier study, Ernst et al., 2000; cited from earlier work
[2] = test system: Mycobacterium tuberculosis; conditions: earlier study, Ernst et al., 2000; cited from earlier work
[3] = test system: inflammatory cytokines and chemokines; experiment: P. acnes-stimulated production of cytokines and chemokines by monocytes; type: cell-based; conditions: primary human monocytes (FIG. 5)
Procedure: (§1) Primary Human Monocyte Isolation and Stimulation. Peripheral human blood was drawn from normal healthy volunteers into heparinized tubes according to a protocol approved by the Institutional Review Board at UCLA. PBMCs were then isolated on Ficoll-Paque gradients (Pharmacia, Piscataway, N.J.) and plated (5×10^5/well) in 96-well plates for 2 hours in 1% FCS (Omega Scientific, Tarzana, Calif.). Non-adherent cells were removed by washing 3 times with RPMI media, leaving adherent cells. Adherent monocytes were cultured in 10% FCS with P. acnes sonicate, granulysin peptides, or P. acnes sonicate together with various concentrations of granulysin peptide for 24 hours at 37° C. Monocyte supernatants were harvested and assayed for IL-12p40 using cytokine-specific, commercially available antibody pairs in a standard sandwich ELISA (Biosource International, Camarillo, Calif., or BD PharMingen, San Diego, Calif.). Capture antibodies were coated to 96-well EIA/RIA plates (Costar, Corning) and detection was achieved by incubating with biotinylated antibodies followed by Immunopure HRP-conjugated streptavidin (Pierce, Rockford, Ill.) and the ABTS Microwell Peroxidase Substrate System (Kirkegaard & Perry Laboratories, Gaithersburg, Md.). The absorbance at 405 nm was read using a microtiter plate reader, and cytokine concentrations were calculated from a standard curve of recombinant cytokine (Biosource or Pharmingen). Supernatants were assayed for other cytokines using Pierce SearchLight Multiplex Cytokine array services (Pierce Biotechnology, Woburn, Mass.).

IL-12p40 = IL-12p40 ELISA, P. acnes-stimulated primary human monocytes; type: cell-based; conditions: compared to peptides 1-20 and 16-35 (FIG. 5A)
Procedure: as §1, with “Capture antibodies were coated to 96-well EIA/RIA plates (Costar, Corning) and detection was achieved by incubating with biotinylated antibodies followed by Immunopure HRP-conjugated streptavidin (Pierce, Rockford, Ill.) and the ABTS Microwell Peroxidase Substrate System (Kirkegaard & Perry Laboratories, Gaithersburg, Md.).” left out, “Supernatants were assayed for other cytokines using Pierce SearchLight Multiplex Cytokine array services (Pierce Biotechnology, Woburn, Mass.).” left out

MCP-1 = experiment: Cytokine array, P. acnes-stimulated monocytes, MCP-1; type: cell-based, human
Procedure: as §1, with “Capture antibodies were coated to 96-well EIA/RIA plates (Costar, Corning) and detection was achieved by incubating with biotinylated antibodies followed by Immunopure HRP-conjugated streptavidin (Pierce, Rockford, Ill.) and the ABTS Microwell Peroxidase Substrate System (Kirkegaard & Perry Laboratories, Gaithersburg, Md.).” left out, “Supernatants were assayed for other cytokines using Pierce SearchLight Multiplex Cytokine array services (Pierce Biotechnology, Woburn, Mass.).” left out

IP-10 = experiment: Cytokine array, P. acnes-stimulated monocytes, IP-10; type: cell-based, human
Procedure: as §1, with “Capture antibodies were coated to 96-well EIA/RIA plates (Costar, Corning) and detection was achieved by incubating with biotinylated antibodies followed by Immunopure HRP-conjugated streptavidin (Pierce, Rockford, Ill.) and the ABTS Microwell Peroxidase Substrate System (Kirkegaard & Perry Laboratories, Gaithersburg, Md.).” left out, “Supernatants were assayed for other cytokines using Pierce SearchLight Multiplex Cytokine array services (Pierce Biotechnology, Woburn, Mass.).” left out

MDC = experiment: Cytokine array, P. acnes-stimulated monocytes, MDC; type: cell-based, human
Procedure: as §1, with “Capture antibodies were coated to 96-well EIA/RIA plates (Costar, Corning) and detection was achieved by incubating with biotinylated antibodies followed by Immunopure HRP-conjugated streptavidin (Pierce, Rockford, Ill.) and the ABTS Microwell Peroxidase Substrate System (Kirkegaard & Perry Laboratories, Gaithersburg, Md.).” left out, “Supernatants were assayed for other cytokines using Pierce SearchLight Multiplex Cytokine array services (Pierce Biotechnology, Woburn, Mass.).” left out

P. acnes = experiment: Scanning and transmission electron microscopy of peptide-treated P. acnes; type: cell-based, Propionibacterium acnes; conditions: 1 hour to 72 hours of peptide treatment (FIG. 2B, 2C)
Procedure: Electron microscopy. P. acnes at a concentration of 2.08×10^7 bacteria/mL was suspended in 10 mM sodium phosphate buffer pH 7.2 supplemented with 0.03% TSB and incubated with […] granulysin peptides. Samples were then fixed for 30 minutes with 2% gluteraldehyde in 1×PBS, pH=7.35, room temperature, then washed three times and suspended in 1 mL 1×PBS. Scanning EM samples were filtered onto a micropore filter. The filters with the sample on top were dehydrated in graded ethanol; 50, 75, 95 and 100%-15 minutes in each, followed by similar transfers in hexa-methyl-disilazane reagent; 50, 75, 95%-30 minutes each followed by 100% hexa-methyl-disilazane reagent overnight. The scanning EM samples were gold coated and then viewed and photographed on a Cambridge Scanning electron microscope. Transmission EM samples were dehydrated in graded ethanol as above, embedded in Epon, and sectioned on Sorvall MT6000 (RMC, Tucson Ariz.). Thin sections ([…]) were stained with uranyl acetate, viewed and photographed on Jeol XC100 at 80-kV

Row | Sequence | reduction of the number of viable P. acnes [1] [logs] | killing of Escherichia coli (Escherichia coli) | killing of Mycobacterium tuberculosis [2] | P. acnes-stimulated production of cytokines and chemokines [3] | further results
1 | GRDYRTSLTIVQKLKKMVDKPTQRSVSNAATRVSR [1-35] | 2 | capable of killing | capable of killing | – | –
2 | TGRSRWRDVSRNFMRRYQSRVIQGLVAGETAQQIS [36-70] | – | capable of killing | capable of killing | – | –
3 | TRVSRTGRSRWRDVSRNFMR [31-50] | 4 | capable of killing | capable of killing | inhibit | –
4 | TRVSRTGRSRWRDWSRNFMR [31-50v44w] | – | – | – | inhibit | fewer bacteria as compared to incubation with peptide 31-50 ([1]; 32 μM of peptide (FIG. 2A)): 2-3 logs; P. acnes-stimulated production of IL-12p40 (IL-12p40): decreased; production of MCP-1 (MCP-1): inhibited; production of IP-10 (IP-10): inhibited; production of MDC (MDC): inhibited; effect on P. acnes surface by scanning and transmission EM (P. acnes): perturbs the surface integrity of P. acnes
5 | TRVSRTGRSRWRDWSRNFMR [D-31-50v44w] (all D-amino acids) | – | – | – | decreased; also recorded: inhibit | antimicrobial potency in vitro as compared to 31-50v44w (D versus L form) ([1]; P. acnes): even greater potency; kind of antimicrobial activity against P. acnes (bacteriostatic or bactericidal) ([1]; comparison with widely used antibiotics (FIG. 3C)): bactericidal
